Results reported in patent US20050112573A1, “Method of detecting toxic substance” (priority 2001, published 2005).

System: yeast genes (level of expressed mRNA)
Experiment: DNA chip analysis of expressed mRNA of yeast genes after 2 h culture with a toxic chemical substance
Format: cell-based, Saccharomyces cerevisiae S288C
Description: Yeast (Saccharomyces cerevtisiae S288C (α SUC2mal mel gap2 CUP1)) were cultured at 25° C. on YPD medium (yeast extract 1%, polypepton 2%, glucose 2%). One of toxic chemical substances was added to the cell at logarithmic growth phase, and the cell was further cultured for two hours. Cell was cultured without any chemical substance in the same condition, and was used as control. Concentrations of the chemical substances were defined to inhibit the growth of the yeast but not lead to death.
After the completion of cultivation, the culture was centrifuged to collect the cells. To the cells, sodium acetate buffer (50 mM sodium acetate, 10 mM EDTA, 1% SDS) was added, and the mixture was shaken at 65° C. for five minutes, followed by returning to room temperature, and obtaining the supernatant, which procedure was repeated two times. To the supernatant, ½ amount of a solution of phenol/chloroform was added, and the mixture was centrifuged to give a supernatant, which was added with an equal amount of chloroform, and the mixture was centrifuged to give a supernatant. To the supernatant, an equal amount of isopropanol containing 0.3 M sodium acetate was added, and the mixture was allowed to stand at room temperature for 30 minutes, after which the mixture was centrifuged to give a sediment of the whole RNAs. Seventy % ethanol was added to the sediment, and the mixture was again centrifuged to give a sediment, which was then dried and dissolved in water. mRNA was isolated from the whole RNAs as followings. In view of the fact that a poly A chain is attached to the 3′ terminus of mRNA, a polynucleotide having a poly T structure which was immobilized on the surface of latex beads was used to trap the mRNA, and then the mRNA was washed and eluted with spine column (Oligotex-dT30<Super>mRNA Purification Kit, Takara). Reverse transcription of the mRNA was conducted with a reverse transcriptase (Super Script II Reverse Transcriptase; catalogue No. 18064-014, GibcoBRL) using fluorescence-labeled nucleotides to give cDNAs that were introduced with Cy3-dUTP or Cy5-dUTP during the reverse transcription.
The labeled cDNAs were dissolved in TE buffer (10 mM Tris-HCl/1 mM EDTA, pH8.0), and the solution was dropped on the DNA chip containing the whole genes of yeast (DNA Chip Research Inc. Japan) so that the cDNAs were hybridized on the DNA chip at 65° C. for over 12 hours. The fluoresces intensity of the DNA chip was read with a scanner, and the ratio relative to the fluorescence intensity resulting from the absence of chemical substance was estimated as the following, which is shown in Tables 1 to 9: [formula]
In the Tables, “Intensity” indicated in the rightmost column is a value of the level of expressed mRNA of each gene in control cells as divided by the average level of the expressions of the whole genes.

## CdCl2 [(2)]
Yeast gene YAL053W, ratio to control without chemical
  The level of expressed mRNA in the presence of chemical substance/: 0.9
Yeast gene YAR010C
  The level of expressed mRNA in the presence of chemical substance/The level of expressed mRNA in the absence of chemical substance: 1.2
Yeast gene YBL005W-A
  The level of expressed mRNA in the presence of chemical substance/The level of expressed mRNA in the absence of chemical substance: 0.9
Yeast gene YBL041W
  The level of expressed mRNA in the presence of chemical substance/The level of expressed mRNA in the absence of chemical substance: 1.4
Yeast gene YBL043W
  The level of expressed mRNA in the presence of chemical substance/The level of expressed mRNA in the absence of chemical substance: 1.2
Yeast gene YBL048W, ratio to control without chemical substance, 2 h culture
  The level of expressed mRNA in the presence of chemical substance/: 7.9
Yeast gene YBL078C
  The level of expressed mRNA in the presence of chemical substance/The level of expressed mRNA in the absence of chemical substance: 2.7
Yeast gene YBL107C, ratio to control without chemical substance, 2 h culture
  The level of expressed mRNA in the presence of chemical substance/: 1.1
Yeast gene YBR036C
  The level of expressed mRNA in the presence of chemical substance/in the absence of chemical substance: 1.7
Yeast gene YBR214W
  The level of expressed mRNA in the presence of chemical substance/The level of expressed mRNA in the absence of chemical substance: 2.1
Yeast gene YBR298C
  The level of expressed mRNA in the presence of chemical substance/in the absence of chemical substance: 1.0
Yeast gene YCL020W
  The level of expressed mRNA in the presence of chemical substance/The level of expressed mRNA in the absence of chemical substance: 2.5
Yeast gene YCL027W
  The level of expressed mRNA in the presence of chemical substance/The level of expressed mRNA in the absence of chemical substance: 2.0
Yeast gene YCR004C
  The level of expressed mRNA in the presence of chemical substance/The level of expressed mRNA in the absence of chemical substance: 1.0
Yeast gene YCR071C
  The level of expressed mRNA in the presence of chemical substance/The level of expressed mRNA in the absence of chemical substance: 0.7
Yeast gene YCR088W
  The level of expressed mRNA in the presence of chemical substance/The level of expressed mRNA in the absence of chemical substance: 1.1
Yeast gene YDL008W
  The level of expressed mRNA in the presence of chemical substance/The level of expressed mRNA in the absence of chemical substance: 1.0
Yeast gene YDL072C, ratio to control without chemical
  The level of expressed mRNA in the presence of chemical substance/: 1.1
Yeast gene YDL078C
  The level of expressed mRNA in the presence of chemical substance/in the absence of chemical substance: 1.1
Yeast gene YDL204W, ratio to control without chemical
  The level of expressed mRNA in the presence of chemical substance/: 1.9
Yeast gene YDL215C
  The level of expressed mRNA in the presence of chemical substance/in the absence of chemical substance: 1.5
Yeast gene YDL222C, ratio to control without chemical
  The level of expressed mRNA in the presence of chemical substance/: 1.1
Yeast gene YDL238C
  The level of expressed mRNA in the presence of chemical substance/The level of expressed mRNA in the absence of chemical substance: 1.0
Yeast gene YDR055W
  The level of expressed mRNA in the presence of chemical substance/The level of expressed mRNA in the absence of chemical substance: 2.1
Yeast gene YDR084C
  The level of expressed mRNA in the presence of chemical substance/The level of expressed mRNA in the absence of chemical substance: 0.9
Yeast gene YDR085C
  The level of expressed mRNA in the presence of chemical substance/The level of expressed mRNA in the absence of chemical substance: 1.8
Yeast gene YDR104C
  The level of expressed mRNA in the presence of chemical substance/The level of expressed mRNA in the absence of chemical substance: 1.1
Yeast gene YDR115W
  The level of expressed mRNA in the presence of chemical substance/The level of expressed mRNA in the absence of chemical substance: 0.9
Yeast gene YDR259C
  The level of expressed mRNA in the presence of chemical substance/The level of expressed mRNA in the absence of chemical substance: 1.0
Yeast gene YDR297W
  The level of expressed mRNA in the presence of chemical substance/in the absence of chemical substance: 0.8
Yeast gene YDR315C
  The level of expressed mRNA in the presence of chemical substance/The level of expressed mRNA in the absence of chemical substance: 1.4
Yeast gene YDR330W, ratio to control without chemical substance, 2 h culture
  The level of expressed mRNA in the presence of chemical substance/: 1.5
Yeast gene YDR358W
  The level of expressed mRNA in the presence of chemical substance/The level of expressed mRNA in the absence of chemical substance: 1.1
Yeast gene YDR387C
  The level of expressed mRNA in the presence of chemical substance/in the absence of chemical substance: 0.9
Yeast gene YDR388W
  The level of expressed mRNA in the presence of chemical substance/The level of expressed mRNA in the absence of chemical substance: 0.7
Yeast gene YDR411C, ratio to control without chemical substance, 2 h culture
  The level of expressed mRNA in the presence of chemical substance/: 2.8
Yeast gene YDR432W
  The level of expressed mRNA in the presence of chemical substance/The level of expressed mRNA in the absence of chemical substance: 0.8
Yeast gene YDR481C
  The level of expressed mRNA in the presence of chemical substance/The level of expressed mRNA in the absence of chemical substance: 2.3
Yeast gene YDR510W
  The level of expressed mRNA in the presence of chemical substance/The level of expressed mRNA in the absence of chemical substance: 1.3
Yeast gene YDR511W, ratio to control without chemical substance, 2 h culture
  The level of expressed mRNA in the presence of chemical substance/: 1.7
Yeast gene YDR545W, ratio to control without chemical substance, 2 h culture
  The level of expressed mRNA in the presence of chemical substance/: 1.2
Yeast gene YEL001C, ratio to control without chemical
  The level of expressed mRNA in the presence of chemical substance/: 1.0
Yeast gene YEL042W
  The level of expressed mRNA in the presence of chemical substance/The level of expressed mRNA in the absence of chemical substance: 0.9
Yeast gene YEL066W
  The level of expressed mRNA in the presence of chemical substance/The level of expressed mRNA in the absence of chemical substance: 2.9
Yeast gene YER004W, ratio to control without chemical substance, 2 h culture
  The level of expressed mRNA in the presence of chemical substance/: 1.5
Yeast gene YER035W, ratio to control without chemical substance, 2 h culture
  The level of expressed mRNA in the presence of chemical substance/: 1.6
Yeast gene YER039C
  The level of expressed mRNA in the presence of chemical substance/The level of expressed mRNA in the absence of chemical substance: 1.2
Yeast gene YER079W, ratio to control without chemical substance, 2 h culture
  The level of expressed mRNA in the presence of chemical substance/: 1.6
Yeast gene YER106W, ratio to control without chemical
  The level of expressed mRNA in the presence of chemical substance/: 0.7
Yeast gene YER107C
  The level of expressed mRNA in the presence of chemical substance/The level of expressed mRNA in the absence of chemical substance: 0.5
Yeast gene YER130C
  The level of expressed mRNA in the presence of chemical substance/The level of expressed mRNA in the absence of chemical substance: 1.6
Yeast gene YER158C, ratio to control without chemical substance, 2 h culture
  The level of expressed mRNA in the presence of chemical substance/: 0.9
Yeast gene YER163C, ratio to control without chemical substance, 2 h culture
  The level of expressed mRNA in the presence of chemical substance/: 2.4
Yeast gene YER175C, ratio to control without chemical substance, 2 h culture
  The level of expressed mRNA in the presence of chemical substance/: 1.2
Yeast gene YFL006W, ratio to control without chemical substance, 2 h culture
  The level of expressed mRNA in the presence of chemical substance/: 2.8
